According to patent US20130274100A1, “Synergistic Fungicidal Active Substance Combinations” (priority 2005, published 2013):

Assays:
Puccinia recondita = experiment: Puccinia test (wheat)/protective; assay type: in vivo; conditions: protective spray, evaluation 10 days after inoculation
Source text: The expected fungicidal action for a given combination of two active compounds can be calculated as follows, according to S. R. Colby (“Calculating Synergistic and Antagonistic Responses of Herbicide Combinations”, Weeds 1967, 15, 20-22): • X is the efficacy when employing active compound A at an application rate of m g/ha, • Y is the efficacy when employing active compound B at an application rate of n g/ha and • E is the efficacy when employing active compounds A and B at application rates of m and n g/ha, then Here, the efficacy is determined in %. 0% means an efficacy which corresponds to that of the control, whereas an efficacy of 100% means that no infection is observed. If the actual fungicidal action exceeds the calculated value, the action of the combination is superadditive, i.e. a synergistic effect is present. In this case, the actually observed efficacy must exceed the value calculated using the above formula for the expected efficacy (E). Puccinia Test (Wheat)/Protective Solvent: 50 parts by weight of N,N-dimethylacetamide Emulsifier: 1 part by weight of alkylaryl polyglycol ether To produce a suitable preparation of active compound, 1 part by weight of active compound is mixed with the stated amounts of solvent and emulsifier or a commercial active compound formulation, and the concentrate is diluted with water to the desired concentration. To test for protective activity, young plants are sprayed with the preparation of active compound at the stated application rate. After the spray coating has dried on, the plants are sprayed with a conidia suspension of Puccinia recondita. The plants remain in an incubation cabin at 20° C. and 100% relative atmospheric humidity for 48 hours. The plants are then placed in a greenhouse at a temperature of about 20° C. and a relative atmospheric humidity of 80% to promote the development of rust postules. Evaluation is carried out 10 days after the inoculation. 0% means inefficacy which corresponds to that of the control, whereas an efficacy of 100% means that no infection is observed.

[1] = tested on: Erysiphe graminis f.sp. tritici; experiment: Erysiphe test (wheat)/protective; assay type: in vivo; conditions: protective spray, application rate 62.5 g/ha, evaluation 7 days after inoculation
Source text: The expected fungicidal action for a given combination of two active compounds can be calculated as follows, according to S. R. Colby (“Calculating Synergistic and Antagonistic Responses of Herbicide Combinations”, Weeds 1967, 15, 20-22): • X is the efficacy when employing active compound A at an application rate of m g/ha, • Y is the efficacy when employing active compound B at an application rate of n g/ha and • E is the efficacy when employing active compounds A and B at application rates of m and n g/ha, then Here, the efficacy is determined in %. 0% means an efficacy which corresponds to that of the control, whereas an efficacy of 100% means that no infection is observed. If the actual fungicidal action exceeds the calculated value, the action of the combination is superadditive, i.e. a synergistic effect is present. In this case, the actually observed efficacy must exceed the value calculated using the above formula for the expected efficacy (E). Erysiphe Test (Wheat)/Protective Solvent: 50 parts by weight of N,N-dimethylacetamide Emulsifier: 1 part by weight of alkylarylpolyglycol ether To produce a suitable preparation of active compound, 1 part by weight of active compound is mixed with the stated amounts of solvent and emulsifier or a commercial active compound formulation, and the concentrate is diluted with water to the desired concentration. To test for protective activity, young plants are sprayed with the preparation of active compound at the stated application rate. After the spray coating has dried on, the plants are dusted with spores of Erysiphe graminis f.sp. tritici. The plants are placed in a greenhouse at a temperature of about 20° C. and a relative atmospheric humidity of about 80% to promote the development of mildew pustules. Evaluation is carried out 7 days after the inoculation. 0% means an efficacy which corresponds to that of the control, whereas an efficacy of 100% means that no infection is observed.

Row | SMILES | Efficacy in % found (Puccinia recondita; application rate 125 g/ha) | Efficacy in % found [1] | Efficacy in % found (Puccinia recondita; application rate 250 g/ha)
1 | CCCC1COC(Cn2cncn2)(c2ccc(Cl)cc2Cl)O1 (stereo not shown) [(3-3), Propiconazole] | 56% | 29% | –
2 | CC(C)CC(C)c1sccc1NC(=O)c1cn(C)nc1C(F)(F)F (stereo not shown) [(1-1), N-[2-(1,3-dimethylbutyl)-3-thienyl]-1-methyl-3-(trifluoromethyl)-1H-pyrazole-4-carboxamide] | 33% | 0% | 67%
3 | CCCCC(O)(Cn1cncn1)c1ccc(Cl)cc1Cl (stereo not shown) [(3-7), Hexaconazole] | 78% | 29% | –
4 | CC(C1CC1)C(O)(Cn1cncn1)c1ccc(Cl)cc1 (stereo not shown) [(3-6), Cyproconazole] | 94% | 57% | –
5 | Cc1cc(C2CC2)nc(Nc2ccccc2)n1 [(9-1), Cyprodinil] | 0% | 0% | –
6 | CO/C=C(/C(=O)OC)c1ccccc1COc1cccc(C(F)(F)F)n1 [(2-9), Picoxystrobin] | – | 71% | 94%
